The results in this text go back to US20260315464A1, “COMPOSITIONS, METHODS, AND SYSTEMS FOR MODULATING SPLICING OF MSH3” (REVIR THERAPEUTICS, INC., priority 2023, published 2026).

The test system of this test is MSH3. The test is described as follows: QPCR assay for levels of MSH3 upon compound treatment in HEK293T or AD293 cells (fold-change of MSH3 transcript, EC50 of MSH3 downregulation; total MSH3 exons 13/14, exons 20/21; Table 8). The format is cell-based. Conditions: for mrna remaining at 1 µM / mrna remaining at 10 µM: Homo sapiens, fold-change of the MSH3 transcript, normalized to GAPDH; for mrna remaining at 1 µM: 1 μM compound; for mrna remaining at 10 µM: 10 μM compound; for EC50: EC50 of MSH3 downregulation, XtalPi. An outline of the steps:
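HEK293T or AD293 cells were treated at 1 μM and […]; RNA-to-cDNA qPCR used TaqMan assays for total MSH3 (exons 13/14, exons 20/21) and poison-exon junctions exon 13/PE14A and exon 20/PE21A. Transcript levels were normalized to GAPDH.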

As for `Cc1nn(C)cc1-c1cc2c(cn1)CN(c1cnc(N(C)[C@H]3C[C@]4(C)CC[C@](C)(C3)N4)nn1)C2=O` [Compound 55, 6-(1,3-dimethyl-1H-pyrazol-4-yl)-2-(3-(((1R,3s,5S)-1,5-dimethyl-8-azabicyclo[3.2.1]octan-3-yl)(methyl)amino)-1,2,4-triazin-6-yl)-2,3-dihydro-1H-pyrrolo[3,4-c]pyridin-1-one], the mrna remaining at 1 µM is 56% and the mrna remaining at 10 µM amounted to 20%.

As for `Cc1nc(C)c(-c2cc3c(cn2)CN(c2ccc(O[C@H]4C[C@]5(C)CC[C@](C)(C4)N5)nn2)C3=O)s1` [Compound 69, 2-(6-(((1R,3s,5S)-1,5-dimethyl-8-azabicyclo[3.2.1]octan-3-yl)oxy)pyridazin-3-yl)-6-(2,4-dimethylthiazol-5-yl)-2,3-dihydro-1H-pyrrolo[3,4-c]pyridin-1-one], it took 885 nM to reach a half-maximal effect (EC50), the mrna remaining at 1 µM worked out at 30% and the mrna remaining at 10 µM turned out to be 11%.

With `Cc1nn(C)nc1-c1cnc2c(c1)C(=O)N(c1ccc(N3CC4CNC4C3)nn1)C2` (centres unmarked) [Compound 559, 6-(6-(3,6-diazabicyclo[3.2.0]heptan-3-yl)pyridazin-3-yl)-3-(2,5-dimethyl-2H-1,2,3-triazol-4-yl)-6,7-dihydro-5H-pyrrolo[3,4-b]pyridin-5-one], the mrna remaining at 1 µM stood at 93% and the mrna remaining at 10 µM came out at 53%.

Turning to `Cc1nn(C)cc1-c1cnc2c(c1)C(=O)N(c1ccc(OC3CC(C)(C)NC(C)(C)C3)nn1)C2` [Compound 141, 3-(1,3-dimethyl-1H-pyrazol-4-yl)-6-(6-((2,2,6,6-tetramethylpiperidin-4-yl)oxy)pyridazin-3-yl)-6,7-dihydro-5H-pyrrolo[3,4-b]pyridin-5-one], the mrna remaining at 1 µM amounted to 67% and the mrna remaining at 10 µM worked out at 6%.

In the case of `Cc1nn(C)nc1-c1cc(Cl)c2c(c1)C(=O)N(c1ccc(O[C@H]3C[C@]4(C)CC[C@](C)(C3)N4)nn1)C2` [Compound 661, 4-chloro-6-(2,5-dimethyl-2H-1,2,3-triazol-4-yl)-2-(6-(((1R,3s,5S)-1,5-dimethyl-8-azabicyclo[3.2.1]octan-3-yl)oxy)pyridazin-3-yl)isoindolin-1-one], the mrna remaining at 1 µM is 155% and the mrna remaining at 10 µM came to 33%.

Consider `CN(c1ccc(N2Cc3c(C#N)cc(-c4nn(C)nc4Cl)cc3C2=O)nn1)C1CC(C)(C)NC(C)(C)C1` [Compound 682, 6-(5-chloro-2-methyl-2H-1,2,3-triazol-4-yl)-2-(6-(methyl(2,2,6,6-tetramethylpiperidin-4-yl)amino)pyridazin-3-yl)-1-oxoisoindoline-4-carbonitrile], for which the mrna remaining at 1 µM was 77% and the mrna remaining at 10 µM is 17%.

With `Cc1nn(C)cc1-c1ccc2c(c1)C(=O)N(c1ccc(O[C@H]3C[C@]4(C)CC[C@](C)(C3)N4)nn1)C2` [Compound 416, 6-(1,3-dimethyl-1H-pyrazol-4-yl)-2-(6-(((1R,3s,5S)-1,5-dimethyl-8-azabicyclo[3.2.1]octan-3-yl)oxy)pyridazin-3-yl)isoindolin-1-one], the mrna remaining at 1 µM stood at 37%.

As for `Cn1nc(Cl)c(-c2cnc3c(n2)C(=O)N(c2ccc(OC4CC(C)(C)NC5(CCC5)C4)nn2)C3)n1` (centres unmarked) [Compound 628, 3-(5-chloro-2-methyl-2H-1,2,3-triazol-4-yl)-6-(6-((6,6-dimethyl-5-azaspiro[3.5]nonan-8-yl)oxy)pyridazin-3-yl)-6,7-dihydro-5H-pyrrolo[3,4-b]pyrazin-5-one], the mrna remaining at 1 µM is 101% and the mrna remaining at 10 µM amounted to 20%.

For `Cc1nn(C)nc1-c1cc(F)c2c(c1)C(=O)N(c1ccc(N3C[C@@H](C)NC[C@@H]3C)nn1)C2` [Compound 674, 6-(2,5-dimethyl-2H-1,2,3-triazol-4-yl)-2-(6-((2S,5R)-2,5-dimethylpiperazin-1-yl)pyridazin-3-yl)-4-fluoroisoindolin-1-one], the mrna remaining at 1 µM worked out at 98% and the mrna remaining at 10 µM was 49%.

Regarding `Cc1nn(C)nc1-c1cnc2c(c1)C(=O)N(c1ccc(OC3CC(C)(C)NC(C)(C)C3)nn1)C2` [Compound 179, 3-(2,5-dimethyl-2H-1,2,3-triazol-4-yl)-6-(6-((2,2,6,6-tetramethylpiperidin-4-yl)oxy)pyridazin-3-yl)-6,7-dihydro-5H-pyrrolo[3,4-b]pyridin-5-one], the mrna remaining at 1 µM worked out at 93% and the mrna remaining at 10 µM worked out at 8%.

For `CN(c1ccc(N2Cc3ncc(-c4cnn(C)n4)cc3C2=O)nn1)[C@H]1C[C@]2(C)CC[C@](C)(C1)N2` [Compound 188, 6-(6-(((1R,3s,5S)-1,5-dimethyl-8-azabicyclo[3.2.1]octan-3-yl)(methyl)amino)pyridazin-3-yl)-3-(2-methyl-2H-1,2,3-triazol-4-yl)-6,7-dihydro-5H-pyrrolo[3,4-b]pyridin-5-one], a half-maximal effect (EC50) was put at 960 nM, the mrna remaining at 1 µM came out at 18% and the mrna remaining at 10 µM stood at 5%.

`CC[C@]12CC[C@](C)(C[C@@H](Oc3ccc(N4Cc5cnc(-c6cn(C)nc6C)cc5C4=O)nn3)C1)N2` [Compound 98, 6-(1,3-dimethyl-1H-pyrazol-4-yl)-2-(6-(((1S,3R,5R)-1-ethyl-5-methyl-8-azabicyclo[3.2.1]octan-3-yl)oxy)pyridazin-3-yl)-2,3-dihydro-1H-pyrrolo[3,4-c]pyridin-1-one]: the mrna remaining at 1 µM came to 83% and the mrna remaining at 10 µM was 25%.

`CN(c1ccc(N2Cc3c(O)cc(-c4nn(C)nc4Cl)cc3C2=O)nn1)[C@H]1C[C@]2(C)CC[C@](C)(C1)N2` [Compound 689, 6-(5-chloro-2-methyl-2H-1,2,3-triazol-4-yl)-2-(6-(((1R,3s,5S)-1,5-dimethyl-8-azabicyclo[3.2.1]octan-3-yl)(methyl)amino)pyridazin-3-yl)-4-hydroxyisoindolin-1-one]: the mrna remaining at 1 µM was found to be 88% and the mrna remaining at 10 µM amounted to 27%.

With `Cn1ncc(-c2cc3c(cn2)CN(c2ccc(OC4CCC(C)(C)NC(C)(C)C4)nn2)C3=O)n1` (centres unmarked) [Compound 465, 6-(2-methyl-2H-1,2,3-triazol-4-yl)-2-(6-((2,2,7,7-tetramethylazepan-4-yl)oxy)pyridazin-3-yl)-2,3-dihydro-1H-pyrrolo[3,4-c]pyridin-1-one], the mrna remaining at 1 µM is 93% and the mrna remaining at 10 µM was determined as 115%.

In the case of `COc1cc(OC2CC(C)(C)NC(C)(C)C2)nnc1N1Cc2ncc(-c3cn(C)nc3C)cc2C1=O` [Compound 203, 3-(1,3-dimethyl-1H-pyrazol-4-yl)-6-(4-methoxy-6-((2,2,6,6-tetramethylpiperidin-4-yl)oxy)pyridazin-3-yl)-6,7-dihydro-5H-pyrrolo[3,4-b]pyridin-5-one], the mrna remaining at 1 µM worked out at 56% and the mrna remaining at 10 µM turned out to be 62%.

For the compound `Cc1nn(C)cc1-c1cc(F)c2c(c1)C(=O)N(c1ccc(N3CCN[C@@H](C(C)C)C3)nn1)C2` [Compound 296, (S)-6-(1,3-dimethyl-1H-pyrazol-4-yl)-4-fluoro-2-(6-(3-isopropylpiperazin-1-yl)pyridazin-3-yl)isoindolin-1-one], the mrna remaining at 1 µM was 54%.

As for `CN(c1ccc(N2Cc3ncc(-c4cn(C)nc4F)cc3C2=O)nn1)C1CC(C)(C)NC(C)(C)C1` [Compound 187, 3-(3-fluoro-1-methyl-1H-pyrazol-4-yl)-6-(6-(methyl(2,2,6,6-tetramethylpiperidin-4-yl)amino)pyridazin-3-yl)-6,7-dihydro-5H-pyrrolo[3,4-b]pyridin-5-one], the mrna remaining at 1 µM turned out to be 92% and the mrna remaining at 10 µM worked out at 25%.

With `Cc1nn(C)cc1-c1cc2c(cn1)CN(c1ccc(N(C)C3CC(C)(C)NC(C)(C)C3)nn1)C2=O` [Compound 51, 6-(1,3-dimethyl-1H-pyrazol-4-yl)-2-(6-(methyl(2,2,6,6-tetramethylpiperidin-4-yl)amino)pyridazin-3-yl)-2,3-dihydro-1H-pyrrolo[3,4-c]pyridin-1-one], the mrna remaining at 1 µM came to 94% and the mrna remaining at 10 µM stood at 26%.

Consider `COc1cc(-c2nn(C)nc2Cl)cc2c1CN(c1ccc(N(C)[C@H]3C[C@]4(C)CC[C@](C)(C3)N4)nn1)C2=O` [Compound 686, 6-(5-chloro-2-methyl-2H-1,2,3-triazol-4-yl)-2-(6-(((1R,3s,5S)-1,5-dimethyl-8-azabicyclo[3.2.1]octan-3-yl)(methyl)amino)pyridazin-3-yl)-4-methoxyisoindolin-1-one], for which the mrna remaining at 1 µM was 109% and the mrna remaining at 10 µM was 26%.

In the case of `Cn1nc(Cl)c(-c2cc(F)c3c(c2)C(=O)N(c2ccc(N4CC5CC(C4)N5)nn2)C3)n1` [Compound 655, 2-(6-(3,6-diazabicyclo[3.1.1]heptan-3-yl)pyridazin-3-yl)-6-(5-chloro-2-methyl-2H-1,2,3-triazol-4-yl)-4-fluoroisoindolin-1-one], the mrna remaining at 1 µM came to 115% and the mrna remaining at 10 µM was found to be 48%.

Take `Cc1nn(C)nc1-c1cc(F)c2c(c1)C(=O)N(c1ccc(N3CCNC(C)(C)C3)nn1)C2` [Compound 643, 6-(2,5-dimethyl-2H-1,2,3-triazol-4-yl)-2-(6-(3,3-dimethylpiperazin-1-yl)pyridazin-3-yl)-4-fluoroisoindolin-1-one]: the mrna remaining at 1 µM was found to be 109% and the mrna remaining at 10 µM amounted to 72%.

Turning to `Cn1nc(Cl)c(-c2cnc3c(c2)C(=O)N(c2ccc(OC4CC(C)(C)NC(C)(C)C4)nn2)C3)n1` [Compound 493, 3-(5-chloro-2-methyl-2H-1,2,3-triazol-4-yl)-6-(6-((2,2,6,6-tetramethylpiperidin-4-yl)oxy)pyridazin-3-yl)-6,7-dihydro-5H-pyrrolo[3,4-b]pyridin-5-one], the mrna remaining at 1 µM stood at 57% and the mrna remaining at 10 µM turned out to be 13%.
